Data set [1] can be described thus: H+/Na+ transport assay of bead-derived peptides (one-point).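 Further: relative to parent gramicidin A activity set to 1.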 The conditions noted are these: bead-derived peptide solution, EYPC/EYPG LUVs. In kind it is biochemical. On the set-up: key: relative activity; mean of two control wells = 1.00. In outline:
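Pyranine (1.0 mM)-loaded LUVs containing egg yolk phosphatidylglycerol were prepared by film hydration, sonication and extrusion, then mixed with diluted bead-derived peptide in 96-well format and vortexed 30 min at room temperature. Fluorescence was normalized between untreated LUVs (0%) and Triton X-100 lysis (100%).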

The subject of data set [2] is Streptococcus pyogenes SSI-9. In words: Antibacterial activity assay of bead-derived peptides (three concentrations). In kind it is cell-based. More on the design: key: +++: inhibition by the 640-fold diluted peptide solution; ++: inhibition by the 160-fold diluted solution; +: inhibition by the 40-fold diluted solution; -: no inhibition. The conditions noted are these: S. pyogenes, bead-derived peptide solution, three concentrations. The procedure, abridged: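 Three stock dilutions per peptide (none, 4-fold, 16-fold in DMSO) are screened in 96-well format. The medium is blood-supplemented cation-adjusted MHB, inoculated with 2 × 10^5 CFU S. pyogenes SSI-9. Growth is read as cell precipitation at 18 h, 37 °C.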

Data set [3] has as its system P388 mouse leukemia cells. To be noted: 92 h. In outline:
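First, library peptide stocks are diluted 250-fold in RPMI1640 with 10% heat-inactivated FBS. Next, they are mixed with P388 cells to give 1 × 10^4 cells/mL and incubated 92 h at 37 °C, 5% CO2. Finally, viability (%) is scored by WST-1 absorbance at 415 nm.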

Where a SMILES comes first, the peptide text is derived from it. [ ]: non-standard residue; d: D form. The star is where a group is joined. NHCH2CH2OH = OCCN*; For = O=C*

Take `CC(C)C[C@@H](NC(=O)[C@H](Cc1c[nH]c2ccccc12)NC(=O)[C@@H](CC(C)C)NC(=O)[C@H](Cc1c[nH]c2ccccc12)NC(=O)[C@H](NC(=O)[C@H](Cc1c[nH]c2ccccc12)NC(=O)[C@@H](CC(C)C)NC(=O)[C@@H](NC(=O)[C@H](NC(=O)[C@H](C)NC(=O)[C@H](NC(=O)[C@H](C)NC(=O)CNC(=O)[C@@H](NC=O)C(C)C)C(C)C)C(C)C)C(C)C)C(C)C)C(=O)N[C@@H](Cc1c[nH]c2ccccc12)C(=O)NCCO` [compound 10661] (For-VGA[dV]A[dV]V[dL]W[dV]W[dL]W[dL]W-NHCH2CH2OH): in data set [1], the “H+/Na+ transport activity normalized against the value of 1 (1.00)” value (“H+/Na+ transport activity normalized” for short) worked out at 1.03. The antibacterial activity result in data set [2] was “+”. The molecule further gave a cell viability/% in data set [3] of 39.9%.
On the same counts, the results for `CC(C)C[C@@H](NC(=O)[C@H](C)NC(=O)CNC(=O)[C@@H](NC=O)C(C)C)C(=O)N[C@@H](C)C(=O)N[C@@H](C(=O)N[C@H](C(=O)N[C@H](CC(C)C)C(=O)N[C@@H](Cc1c[nH]c2ccccc12)C(=O)N[C@H](CC(C)C)C(=O)N[C@@H](Cc1c[nH]c2ccccc12)C(=O)N[C@@H](C(=O)N[C@@H](Cc1c[nH]c2ccccc12)C(=O)N[C@H](CC(C)C)C(=O)N[C@@H](Cc1c[nH]c2ccccc12)C(=O)NCCO)C(C)C)C(C)C)[C@H](C)O` [compound 9676] (For-VGA[dL]A[dT]V[dL]W[dL]W[dV]W[dL]W-NHCH2CH2OH) are 1.05, “-” and 100.0%.
The matching figures for `CC(C)C[C@@H](NC(=O)[C@H](Cc1c[nH]c2ccccc12)NC(=O)[C@H](NC(=O)[C@H](Cc1c[nH]c2ccccc12)NC(=O)[C@@H](CC(C)C)NC(=O)[C@@H](NC(=O)[C@H](NC(=O)[C@H](C)NC(=O)[C@H](NC(=O)[C@H](C)NC(=O)CNC(=O)[C@@H](NC=O)C(C)C)C(C)C)C(C)C)C(C)C)C(C)C)C(=O)N[C@@H](Cc1c[nH]c2ccccc12)C(=O)N[C@@H](C(=O)N[C@@H](Cc1c[nH]c2ccccc12)C(=O)NCCO)C(C)C` [compound 12947] (For-VGA[dV]A[dV]V[dL]W[dV]W[dL]W[dV]W-NHCH2CH2OH): 1.02, “+” and 10.2%.
The matching figures for `CNC(=O)C[C@@H](NC(=O)[C@H](Cc1c[nH]c2ccccc12)NC(=O)[C@@H](CC(C)C)NC(=O)[C@H](Cc1c[nH]c2ccccc12)NC(=O)[C@H](NC(=O)[C@H](Cc1c[nH]c2ccccc12)NC(=O)[C@@H](CC(C)C)NC(=O)[C@@H](NC(=O)[C@H](NC(=O)[C@H](C)NC(=O)[C@H](NC(=O)[C@H](C)NC(=O)CNC(=O)[C@@H](NC=O)C(C)C)C(C)C)C(C)C)C(C)C)C(C)C)C(=O)N[C@@H](Cc1c[nH]c2ccccc12)C(=O)NCCO` [compound 11368] (For-VGA[dV]A[dV]V[dL]W[dV]W[dL]W[dD](NHMe)W-NHCH2CH2OH): 1.01, “-” and 61.1%.
Regarding `CC(C)C[C@@H](NC(=O)[C@H](C)NC(=O)[C@H](NC(=O)[C@H](C)NC(=O)CNC(=O)[C@@H](NC=O)C(C)C)C(C)C)C(=O)N[C@H](C(=O)N[C@@H](C(=O)N[C@@H](Cc1c[nH]c2ccccc12)C(=O)N[C@@H](C(=O)N[C@@H](Cc1c[nH]c2ccccc12)C(=O)N[C@@H](C(=O)N[C@@H](Cc1c[nH]c2ccccc12)C(=O)N[C@H](CC(C)C)C(=O)N[C@@H](Cc1c[nH]c2ccccc12)C(=O)NCCO)C(C)C)C(C)C)C(C)C)C(C)C` [compound 9192] (For-VGA[dV]A[dL]V[dV]W[dV]W[dV]W[dL]W-NHCH2CH2OH), in data set [1], the “H+/Na+ transport activity normalized” value is listed as 1.07. The antibacterial activity entry in data set [2] is recorded as “-”. The molecule also came in with a cell viability/% in data set [3] of 100.0%.
On the same counts, the results for `CC(C)C[C@@H](NC(=O)[C@H](C)NC(=O)[C@H](NC(=O)[C@H](C)NC(=O)CNC(=O)[C@@H](NC=O)C(C)C)C(C)C)C(=O)N[C@H](C(=O)N[C@@H](C(=O)N[C@@H](Cc1c[nH]c2ccccc12)C(=O)N[C@@H](C(=O)N[C@@H](Cc1c[nH]c2ccccc12)C(=O)N[C@@H](C(=O)N[C@@H](Cc1c[nH]c2ccccc12)C(=O)N[C@H](CC(C)C)C(=O)N[C@@H](Cc1c[nH]c2ccccc12)C(=O)NCCO)C(C)C)C(C)C)[C@H](C)O)C(C)C` [compound 4395] (For-VGA[dV]A[dL]V[dT]W[dV]W[dV]W[dL]W-NHCH2CH2OH) are 1.07, “-” and 100.0%.
On the same counts, the results for `CNC(=O)C[C@@H](NC(=O)[C@@H](NC(=O)[C@H](NC(=O)[C@H](C)NC(=O)[C@@H](CC(C)C)NC(=O)[C@H](C)NC(=O)CNC(=O)[C@@H](NC=O)C(C)C)C(C)C)C(C)C)C(=O)N[C@@H](Cc1c[nH]c2ccccc12)C(=O)N[C@H](CC(C)C)C(=O)N[C@@H](Cc1c[nH]c2ccccc12)C(=O)N[C@@H](C(=O)N[C@@H](Cc1c[nH]c2ccccc12)C(=O)N[C@H](CC(C)C)C(=O)N[C@@H](Cc1c[nH]c2ccccc12)C(=O)NCCO)C(C)C` [compound 10669] (For-VGA[dL]A[dV]V[dD](NHMe)W[dL]W[dV]W[dL]W-NHCH2CH2OH) are 1.11, “-” and 55.2%.
As to `CC(C)C[C@@H](NC(=O)[C@H](C)NC(=O)CNC(=O)[C@@H](NC=O)C(C)C)C(=O)N[C@@H](C)C(=O)N[C@@H](C(=O)N[C@H](C(=O)N[C@@H](C(=O)N[C@@H](Cc1c[nH]c2ccccc12)C(=O)N[C@@H](C(=O)N[C@@H](Cc1c[nH]c2ccccc12)C(=O)N[C@@H](C(=O)N[C@@H](Cc1c[nH]c2ccccc12)C(=O)N[C@H](CC(C)C)C(=O)N[C@@H](Cc1c[nH]c2ccccc12)C(=O)NCCO)C(C)C)C(C)C)C(C)C)C(C)C)C(C)C` [compound 9223] (For-VGA[dL]A[dV]V[dV]W[dV]W[dV]W[dL]W-NHCH2CH2OH), the “H+/Na+ transport activity normalized” value in data set [1] is 1.03. Moreover, in data set [2], the antibacterial activity entry is on record as “+”. This molecule displayed a cell viability/% in data set [3] of 100.0%.
For the molecule `CNC(=O)C[C@@H](NC(=O)[C@H](Cc1c[nH]c2ccccc12)NC(=O)[C@H](NC(=O)[C@H](Cc1c[nH]c2ccccc12)NC(=O)[C@H](NC(=O)[C@H](Cc1c[nH]c2ccccc12)NC(=O)[C@@H](CC(C)C)NC(=O)[C@@H](NC(=O)[C@H](NC(=O)[C@H](C)NC(=O)[C@@H](CC(C)C)NC(=O)[C@H](C)NC(=O)CNC(=O)[C@@H](NC=O)C(C)C)C(C)C)C(C)C)C(C)C)C(C)C)C(=O)N[C@@H](Cc1c[nH]c2ccccc12)C(=O)NCCO` [compound 4808] (For-VGA[dL]A[dV]V[dL]W[dV]W[dV]W[dD](NHMe)W-NHCH2CH2OH), the “H+/Na+ transport activity normalized” value in data set [1] turned out to be 1.02. Also, the antibacterial activity result in data set [2] is “-”. Also, the cell viability/% in data set [3] is recorded as 100.0%.
The matching figures for `CC(C)C[C@@H](NC(=O)[C@H](Cc1c[nH]c2ccccc12)NC(=O)[C@H](NC(=O)[C@H](Cc1c[nH]c2ccccc12)NC(=O)[C@@H](CC(C)C)NC(=O)[C@@H](NC(=O)[C@H](NC(=O)[C@H](C)NC(=O)[C@H](NC(=O)[C@H](C)NC(=O)CNC(=O)[C@@H](NC=O)C(C)C)C(C)C)C(C)C)C(C)C)C(C)C)C(=O)N[C@@H](Cc1c[nH]c2ccccc12)C(=O)N[C@@H](C(=O)N[C@@H](Cc1c[nH]c2ccccc12)C(=O)NCCO)C(C)C` [compound 2554] (For-VGA[dV]A[dV]V[dL]W[dV]W[dL]W[dV]W-NHCH2CH2OH): 1.06, “++” and 9.2%.
Consider `CC(C)C[C@@H](NC(=O)[C@H](C)NC(=O)CNC(=O)[C@@H](NC=O)C(C)C)C(=O)N[C@@H](C)C(=O)N[C@H](CC(C)C)C(=O)N[C@H](C(=O)N[C@@H](C(=O)N[C@@H](Cc1c[nH]c2ccccc12)C(=O)N[C@@H](C(=O)N[C@@H](Cc1c[nH]c2ccccc12)C(=O)N[C@H](CC(C)C)C(=O)N[C@@H](Cc1c[nH]c2ccccc12)C(=O)N[C@H](CC(C)C)C(=O)N[C@@H](Cc1c[nH]c2ccccc12)C(=O)NCCO)C(C)C)C(C)C)C(C)C` [compound 8858] (For-VGA[dL]A[dL]V[dV]W[dV]W[dL]W[dL]W-NHCH2CH2OH), for which the “H+/Na+ transport activity normalized” value in data set [1] was determined as 1.05. For the same molecule, in data set [2], the antibacterial activity entry was “+”. In data set [3], this molecule came in with a cell viability/% of 84.7%.
On the same counts, the results for `CC(C)C[C@@H](NC(=O)[C@H](C)NC(=O)[C@H](NC(=O)[C@H](C)NC(=O)CNC(=O)[C@@H](NC=O)C(C)C)C(C)C)C(=O)N[C@H](C(=O)N[C@@H](C(=O)N[C@@H](Cc1c[nH]c2ccccc12)C(=O)N[C@@H](C(=O)N[C@@H](Cc1c[nH]c2ccccc12)C(=O)N[C@H](CC(C)C)C(=O)N[C@@H](Cc1c[nH]c2ccccc12)C(=O)N[C@@H](C(=O)N[C@@H](Cc1c[nH]c2ccccc12)C(=O)NCCO)C(C)C)C(C)C)C(C)C)C(C)C` [compound 12950] (For-VGA[dV]A[dL]V[dV]W[dV]W[dL]W[dV]W-NHCH2CH2OH) are 1.08, “+” and 97.0%.
